The results in this text go back to ChEMBL document CHEMBL1158772, “Benzophenones from Hypericum carinatum” (J Nat Prod, 2005).

Format in all cases: functional
Experiment [1] in a line: Antioxidant activity assessed as ABAP free radical scavenging measured at 3.2 mM by TRAP assay.
Experiment [2] can be described thus: Antioxidant activity assessed as ABAP free radical scavenging measured at 1.6 mM by TRAP assay.
Experiment [3] is described as follows: Antioxidant activity assessed as ABAP free radical scavenging measured by TRAP assay.

Activity calls are given as the source filed them. No cut-off for these calls is given here.

As to `Cc1c(O)c(C(=O)c2ccccc2)c(O)c2c1OC(C)(C)C=C2`, the result in experiment [1] and in experiment [2] was Active.

Take `CC(C)C(=O)C1=C(O)C(Cc2c(O)c3c(c(C(=O)C(C)C)c2O)OC(C)(C)C=C3)=C(O)C(C)(C)C1=O`: in experiment [3], the result was inactive.

Regarding `O=c1c(O)c(-c2ccc(O)c(O)c2)oc2cc(O)cc(O)c12`, the result in experiment [1] was Active.

On to `Cc1c(O)c2c(c(C(=O)c3ccccc3)c1O)OC(C)(C)C=C2`, for which the result in experiment [3] was inactive.
